Laboratory results: PMC5537347, “A short D-enantiomeric antimicrobial peptide with potent immunomodulatory and antibiofilm activity against multidrug-resistant Pseudomonas aeruginosa and Acinetobacter baumannii” (Scientific Reports, 2017)
Where two headings read alike, the source gives them in different places.

Key:
[1] = test system: P. aeruginosa PAO1 biofilm; experiment: Disruption of established biofilms, microtiter dish crystal violet assay; type: cell-based; details: mature (24 hour) biofilm, 24 hours at 37 °C, crystal violet OD 595 nm
Experimental: Figure 1 Efficacy of peptides on established biofilms of P. aeruginosa PAO1 and A. baumannii ATCC BAA-1605. […] After incubation, wells were washed and biofilms were stained with 0.5% (w/v) crystal violet for 30 minutes. The dye was solubilized with ethanol (95%) and the optical density (595 nm) of the biofilm mass was measured. Experiments were repeated twice independently and the average values are reported.
To examine the peptides’ ability to disrupt bacterial biofilms, the microtiter dish biofilm formation assay was employed[41]–[43].

[2] = test system: LPS-induced activation of the LAL enzyme (Limulus amoebocyte lysate); experiment: Binding of peptides to lipopolysaccharide (LAL assay); type: biochemical; details: one EU of LPS, 37 °C, 30 minutes
Experimental: Figure 3 Ability of peptides to neutralize LPS and reduce inflammatory cytokines expression. (A) LPS binding activity of peptides. Peptides at different concentrations were incubated with one endotoxin unit (EU) of LPS at 37 °C for 30 minutes. […] The binding of peptides with LPS is expressed as percent change relative to the untreated samples. (B) Anti-inflammatory effect of peptides on LPS-stimulated macrophages. J774A.1 cells were stimulated with LPS (150 ng/mL final concentration) in the presence of different concentrations of peptides. Cells stimulated with LPS alone and untreated cells served as controls. Cells were incubated for six hours at 37 °C before the supernatant from each treatment group was collected. Detection of tumor necrosis factor-α (TNF-α) and interleukin-6 (IL-6) in supernatants was determined using ELISA. Cytokine levels are expressed as percent change relative to the LPS-stimulated control. Statistical analysis was calculated using one-way ANOVA, with post hoc Tukey’s multiple comparisons test. P < 0.05 was considered significant. One asterisk (*) indicates significant difference with the negative control.
To determine the peptides’ ability to bind to LPS, a Limulus amoebocyte lysate (LAL) kit (Genscript, USA Inc.) was utilized, as described in previous reports. The peptides were dissolved in pyrogen-free water and serially diluted in the same solvent. The peptides were then incubated with one endotoxin unit (EU) of LPS at 37 °C for 30 minutes in order to permit the peptides to bind LPS. The reaction mixture (50 μL) was added to 50 μL of LAL reagent, and further incubated for 10 minutes. Next, 100 μL of LAL chromogenic substrate was added. The mixture was incubated at 37 °C for six minutes. The optical density (at 545 nm) was determined using a microplate reader. Colistin was used as a positive control. The binding of peptides with LPS was expressed as the percent change relative to the untreated control.

P. aeruginosa = type: cell-based

In the case of Colistin [reference compound], the biofilm mass disrupted ([1]; 4 × MIC) is reported as “more than 10%”, the biofilm mass disrupted ([1]; 8 × MIC) is reported as > 25% and the biofilm mass disrupted ([1]; 16 × MIC) is reported as > 28%. The biofilm mass disrupted ([1]; 32 × MIC) was > 75%, the “inhibition of LPS-induced activation of the LAL enzyme” value (“inhibition” for short) ([2]; 5 µM peptide) was 51.2% and the “inhibition” value ([2]; 10 µM peptide) was 83.0%. The “inhibition” value ([2]; 15 µM peptide) was “Complete inhibition”, the “inhibition” value ([2]; 20 µM peptide) was “Complete inhibition” and the MIC (P. aeruginosa; strain ATCC 9027) was 0.25 µM. It also gave an MIC (P. aeruginosa; strain ATCC 9721) of 0.5 µM, an MIC (P. aeruginosa; strain ATCC 10145) of 0.5 µM and an MIC (P. aeruginosa; strain ATCC 15442) of 0.25 µM. It also gave an MIC (P. aeruginosa; strain ATCC 25619) of 0.25 µM, an MIC (P. aeruginosa; strain ATCC 27853) of 0.25 µM and an MIC (P. aeruginosa; strain ATCC 35032) of 0.5 µM. For the same substance, the MIC (P. aeruginosa; strain ATCC BAA-1744) was 0.5 µM and the MIC (P. aeruginosa; strain PAO1) was 0.5 µM.
